Test results: US12599672B2, “KRAS proteolysis targeting chimeras” (PAQ Therapeutics Inc., priority 2023, dated 2026)

Columns and labels:
Format in all cases: cell-based
KRAS G12V = target: T1, KRAS G12V (Homo sapiens, UniProt P01116, G12V); experiment: KRAS G12V HiBit assay; settings: SW620-KRAS (G12V)-HiBit-KI cells, compound treatment for 24 hours, class symbols
T1 construct: SW620-KRAS (G12V)-HiBit-KI cell (Pharmaron); host or cells: SW620-KRAS (G12V)-HiBit-KI cells (HiBiT knock-in at the endogenous KRAS locus)
Procedure, shortened: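 Luminescence from lytic Nano-Glo HiBiT detection with LgBiT read KRAS G12V levels after 24 h compound exposure. Dilutions were 10-point, 3-fold, from a 0.3 mM DMSO stock. Degradation activity was normalised to cells given 0.1% DMSO alone.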

KRAS = target: T2, KRAS (Homo sapiens, UniProt P01116); experiment: KRASamp MSD assay; settings: KE39 (KRAS amplified) cells, treated with test compounds for 24 hr, MSD readout of KRAS degradation
T2 construct: endogenous in cells; host or cells: KE39 (KRAS amplified) cells
Procedure, shortened: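 Degradation DC50 derived by curve fitting, with KRAS levels quantified by MSD electrochemiluminescence (capture/detection antibodies, recombinant WT KRAS standard). Lysates prepared from KE39 cells (KRAS amplified) exposed to test compounds for 24 hr.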

KRAS G12D = target: T3, KRAS G12D (Homo sapiens, UniProt P01116, G12D); experiment: KRAS G12D HiBit assay; settings: AsPc-1-KRAS (G12D)-HiBit-KI cell, compound treatment for 24 hours; for DC50: absolute DC50
T3 construct: AsPc-1-KRAS (G12D)-HiBit-KI cell (Pharmaron); host or cells: AsPc-1-KRAS (G12D)-HiBit-KI cells (HiBiT knock-in at the endogenous KRAS locus)
Procedure, shortened: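 HiBiT luminescence, detected by adding lytic buffer, substrate and LgBiT protein, served as the KRAS G12D read-out. Compounds, serially diluted 3-fold over 10 points from 0.3 mM DMSO stock, were on cells for 24 h; percent inhibition normalized to cells given 0.1% DMSO only.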

[1] = numeric bounds given in place of class symbols

T2 sequence (P01116 1-188 isoform P01116-2): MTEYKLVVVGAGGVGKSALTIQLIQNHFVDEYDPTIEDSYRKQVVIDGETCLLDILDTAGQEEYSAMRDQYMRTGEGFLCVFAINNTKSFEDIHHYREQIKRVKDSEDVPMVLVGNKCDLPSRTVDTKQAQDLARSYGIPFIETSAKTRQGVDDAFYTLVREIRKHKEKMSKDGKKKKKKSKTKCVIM
T3 sequence (P01116 1-188 isoform P01116-2 G12D): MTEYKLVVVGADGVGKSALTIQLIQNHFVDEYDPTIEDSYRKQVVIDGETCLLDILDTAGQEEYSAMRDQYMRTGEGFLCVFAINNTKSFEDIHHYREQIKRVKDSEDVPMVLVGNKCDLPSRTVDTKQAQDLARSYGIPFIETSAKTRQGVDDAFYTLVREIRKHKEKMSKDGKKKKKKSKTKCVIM
T1 sequence (P01116 1-188 isoform P01116-2 G12V): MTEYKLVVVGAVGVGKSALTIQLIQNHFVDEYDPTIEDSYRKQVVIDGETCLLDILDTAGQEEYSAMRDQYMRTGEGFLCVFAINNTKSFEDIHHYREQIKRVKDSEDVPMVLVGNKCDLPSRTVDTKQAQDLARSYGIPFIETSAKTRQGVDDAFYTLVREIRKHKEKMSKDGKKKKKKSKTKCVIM

SMILES	DC50 (KRAS G12V)	DC50 (KRAS)	DC50 (KRAS G12D; class symbols)	DC50 (KRAS G12D; [1])	Average Dmax (KRAS G12D; class symbols)
C#Cc1c(F)ccc2cc(O)cc(-c3ncc4c(N5CCC[C@@](C)(O)C5)nc(OC[C@@]56CCCN5[C@H](COC(=O)N5CCC7(CCC7N7CCC(c8ccc9c(c8)n(C)c(=O)n9C8CCC(=O)NC8=O)CC7)CC5)CC6)nc4c3F)c12 (stereo partly drawn) [Compound 415, ((3S,7aS)-7a-(((7-(8-ethynyl-7-fluoro-3-hydroxynaphthalen-1-yl)-8-fluoro-4-((R)-3-hydroxy-3-methylpiperidin-1-yl)pyrido[4,3-d]pyrimidin-2-yl)oxy)methyl)hexahydro-1H-pyrrolizin-3-yl)methyl 1-(4-(1-(2,6-dioxopiperidin-3-yl)-3-methyl-2-oxo-2,3-dihydro-1H-benzo[d]imidazol-5-yl)piperidin-1-yl)-7-azaspiro[3.5]nonane-7-carboxylate]	> 100 nM	≥ 10 nM	< 100 nM		
C#Cc1c(F)ccc2cc(O)cc(-c3ncc4c(N5CCCC(F)(F)C5)nc(OC[C@]56CCCN5[C@H](COC(=O)N5CCC(CN7CCC(c8ccc9c(c8)n(C)c(=O)n9C8CCC(=O)NC8=O)CC7)CC5)CC6)nc4c3F)c12 (stereo partly drawn) [Compound 431, ((3S,7aR)-7a-(((4-(3,3-difluoropiperidin-1-yl)-7-(8-ethynyl-7-fluoro-3-hydroxynaphthalen-1-yl)-8-fluoropyrido[4,3-d]pyrimidin-2-yl)oxy)methyl)hexahydro-1H-pyrrolizin-3-yl)methyl 4-((4-(1-(2,6-dioxopiperidin-3-yl)-3-methyl-2-oxo-2,3-dihydro-1H-benzo[d]imidazol-5-yl)piperidin-1-yl)methyl)piperidine-1-carboxylate]	< 10 nM	1 to 10 nM		> 100 nM	
CCc1c(F)ccc2cc(O)cc(-c3ncc4c(N5CCC[C@@](C)(N)C5)nc(OC[C@@]56CCCN5[C@H](COC(=O)N5CCC7(CC5)CC(N5CCC(c8ccc9c(c8)n(C)c(=O)n9C8CCC(=O)NC8=O)CC5)C7)CC6)nc4c3F)c12 (stereo partly drawn) [Compound 479, ((3S,7aS)-7a-(((4-((R)-3-amino-3-methylpiperidin-1-yl)-7-(8-ethyl-7-fluoro-3-hydroxynaphthalen-1-yl)-8-fluoropyrido[4,3-d]pyrimidin-2-yl)oxy)methyl)hexahydro-1H-pyrrolizin-3-yl)methyl 2-(4-(1-(2,6-dioxopiperidin-3-yl)-3-methyl-2-oxo-2,3-dihydro-1H-benzo[d]imidazol-5-yl)piperidin-1-yl)-7-azaspiro[3.5]nonane-7-carboxylate]	> 100 nM	≥ 10 nM		> 100 nM	
C#Cc1c(F)ccc2cc(O)cc(-c3ncc4c(N5CCC[C@@](C)(O)C5)nc(OC[C@@]56CCCN5[C@H](COC(=O)N5CC7(CCC(N8CCC(c9ccc%10c(c9)n(C)c(=O)n%10C9CCC(=O)NC9=O)CC8)CC7)C5)CC6)nc4c3F)c12 (stereo partly drawn) [Compound 420, ((3S,7aS)-7a-(((7-(8-ethynyl-7-fluoro-3-hydroxynaphthalen-1-yl)-8-fluoro-4-((R)-3-hydroxy-3-methylpiperidin-1-yl)pyrido[4,3-d]pyrimidin-2-yl)oxy)methyl)hexahydro-1H-pyrrolizin-3-yl)methyl 7-(4-(1-(2,6-dioxopiperidin-3-yl)-3-methyl-2-oxo-2,3-dihydro-1H-benzo[d]imidazol-5-yl)piperidin-1-yl)-2-azaspiro[3.5]nonane-2-carboxylate]	10 to 100 nM	1 to 10 nM	< 100 nM		
C#Cc1c(F)ccc2cc(O)cc(-c3ncc4c(N5CCC[C@@](C)(O)C5)nc(OC[C@@]56CCCN5[C@H](COC(=O)N5CCC(N7CC(N8CCC(c9ccc%10c(c9)n(C)c(=O)n%10C9CCC(=O)NC9=O)CC8)C7)CC5)CC6)nc4c3F)c12 (stereo partly drawn) [Compound 414, ((3S,7aS)-7a-(((7-(8-ethynyl-7-fluoro-3-hydroxynaphthalen-1-yl)-8-fluoro-4-((R)-3-hydroxy-3-methylpiperidin-1-yl)pyrido[4,3-d]pyrimidin-2-yl)oxy)methyl)hexahydro-1H-pyrrolizin-3-yl)methyl 4-(3-(4-(1-(2,6-dioxopiperidin-3-yl)-3-methyl-2-oxo-2,3-dihydro-1H-benzo[d]imidazol-5-yl)piperidin-1-yl)azetidin-1-yl)piperidine-1-carboxylate]	10 to 100 nM	≥ 10 nM	< 100 nM		
C#Cc1c(F)ccc2cc(O)cc(-c3ncc4c(N5CCC[C@@](C)(O)C5)nc(OC[C@@]56CCCN5[C@H](COC(=O)N5CCC(COC7CN(c8ccc9c(c8)n(C)c(=O)n9C8CCC(=O)NC8=O)C7)CC5)CC6)nc4c3F)c12 (stereo partly shown) [Compound 132]	< 10 nM	1 to 10 nM	< 100 nM		
CCc1c(F)ccc2cc(O)cc(-c3ncc4c(N5CCCC(C)(CO)C5)nc(OC[C@@]56CCCN5[C@H](COC(=O)N5CCC(CN7CCC(c8ccc9c(c8)n(C)c(=O)n9C8CCC(=O)NC8=O)CC7)CC5)CC6)nc4c3F)c12 (stereo partly drawn) [Compound 341, ((3S,7aS)-7a-(((7-(8-ethyl-7-fluoro-3-hydroxynaphthalen-1-yl)-8-fluoro-4-(3-(hydroxymethyl)-3-methylpiperidin-1-yl)pyrido[4,3-d]pyrimidin-2-yl)oxy)methyl)hexahydro-1H-pyrrolizin-3-yl)methyl 4-((4-(1-(2,6-dioxopiperidin-3-yl)-3-methyl-2-oxo-2,3-dihydro-1H-benzo[d]imidazol-5-yl)piperidin-1-yl)methyl)piperidine-1-carboxylate]	> 100 nM	≥ 10 nM		> 100 nM	
C#Cc1c(F)ccc2cc(O)cc(-c3ncc4c(N5CCC[C@@](C)(O)C5)nc(OC[C@@]56CCCN5[C@H](COC(=O)N5CCC(CN7CCC(c8ccc9c(c8)n(C)c(=O)n9C8CCC(=O)NC8=O)CC7)CC5)CC6)nc4c3F)c12 (stereo partly drawn) [Compound 4, [(3S,8S)-8-[[7-(8-Ethynyl-7-fluoro-3-hydroxy-1-naphthyl)-8-fluoro-4-[(3R)-3-hydroxy-3-methyl-1-piperidyl]pyrido[4,3-d]pyrimidin-2-yl]oxymethyl]-1,2,3,5,6,7-hexahydropyrrolizin-3-yl]methyl4-[[4-[1-(2,6-dioxo-3-piperidyl)-3-methyl-2-oxo-benzimidazol-5-yl]-1-piperidyl]methyl]piperidine-1-carboxylate]	< 10 nM	< 1 nM	< 100 nM		A (Dmax greater than 50%)
C#Cc1c(F)ccc2cc(O)cc(-c3ncc4c(N5CCC[C@@](C)(O)C5)nc(OCC5(CN6CCN(CC7CCN(c8ccc9c(c8)C(=O)N(C8CCC(=O)NC8=O)C9=O)CC7)CC6)CC5)nc4c3F)c12 (stereo partly shown) [Compound 50]	< 10 nM	1 to 10 nM	< 100 nM		
C#Cc1c(F)ccc2cc(O)cc(-c3ncc4c(N5CCC[C@@](C)(O)C5)nc(OC[C@@]56CCCN5[C@H](COC(=O)N5CC7(CC(N8CCC(c9ccc%10c(c9)n(C)c(=O)n%10C9CCC(=O)NC9=O)CC8)C7)C5)CC6)nc4c3F)c12 (stereo partly drawn) [Compound 419, ((3S,7aS)-7a-(((7-(8-ethynyl-7-fluoro-3-hydroxynaphthalen-1-yl)-8-fluoro-4-((R)-3-hydroxy-3-methylpiperidin-1-yl)pyrido[4,3-d]pyrimidin-2-yl)oxy)methyl)hexahydro-1H-pyrrolizin-3-yl)methyl 6-(4-(1-(2,6-dioxopiperidin-3-yl)-3-methyl-2-oxo-2,3-dihydro-1H-benzo[d]imidazol-5-yl)piperidin-1-yl)-2-azaspiro[3.3]heptane-2-carboxylate]	< 10 nM	< 1 nM	< 100 nM		
